Test results from ChEMBL document CHEMBL1141360, “Kadsuralignans H-K from Kadsura coccinea and their nitric oxide production inhibitory effects” (J Nat Prod, 2007).
Calls of active or inactive are those of the source. No cut-off for these calls is given here.

Assays:
RAW264.7 [1] = assay: Inhibition of LPS and INF-gamma-induced nitric oxide production in mouse RAW264.7 cells after 16 hrs; conditions: for IC50: RAW264.7, 16 h
RAW264.7 [2] = assay: Inhibition of LPS-induced nitric oxide production in mouse RAW264.7 cells; assay type: functional, cell-based

Compound | Activity (RAW264.7 [1]) | IC50 (RAW264.7 [1]) | IC50 (RAW264.7 [2])
C/C=C(/C)C(=O)O[C@H]1C2=CC(=O)C(OC)=C(OC)[C@@]23COc2c4c(cc(c23)[C@H](OC(C)=O)[C@H](C)[C@]1(C)O)OCO4 | inactive |  | 
COC1=C(OC)[C@]23COc4c5c(cc(c42)[C@H](OC(=O)c2ccccc2)[C@H](C)[C@](C)(O)[C@@H](OC(C)=O)C3=CC1=O)OCO5 | inactive |  | 
COc1cc2c(c(OC(=O)c3ccccc3)c1OC)-c1c(cc3c(c1OC)OCO3)[C@H](O)[C@H](C)[C@H](C)C2 | inactive |  | 
COc1cc([C@@H]2c3c(cc(OC)c(OC)c3O)C[C@@H](C)[C@H]2C)cc2c1OCO2 [KADSURALIGNAN H] |  | 19.6 µM | 
C/C=C(\C)C(=O)Oc1c(OC)c(OC)cc2c1-c1c(cc3c(c1OC)OCO3)[C@H](O)[C@H](C)[C@H](C)C2 [KADSURALIGNAN I] |  | 87.2 µM | 
CCC(C)C(=O)Oc1c(OC)c(OC)cc2c1-c1c(cc3c(c1OC)OCO3)[C@H](O)[C@H](C)[C@H](C)C2 (stereo partly drawn) [KADSURALIGNAN J] |  | 33.5 µM | 
O=c1c(O)c(-c2ccc(O)c(O)c2)oc2cc(O)cc(O)c12 [QUERCETIN] |  | 25 µM | 26.8 µM
